Consider 1 molecule from US8686050B2, “Diglycidic ether derivative therapeutics and methods for their use” (British Columbia Cancer Agency Branch, priority 2008, dated 2014).

Experiment [1] concerns the target T1, progesterone receptor (PR) (Homo sapiens, UniProt P06401).
T1 construct: Cells were co-transfected with expression plasmids for full-length hGR, PRβ and the relative reporter; expressed in transfected cells; host or cells: LNCaP
T1 sequence (P06401 1-933): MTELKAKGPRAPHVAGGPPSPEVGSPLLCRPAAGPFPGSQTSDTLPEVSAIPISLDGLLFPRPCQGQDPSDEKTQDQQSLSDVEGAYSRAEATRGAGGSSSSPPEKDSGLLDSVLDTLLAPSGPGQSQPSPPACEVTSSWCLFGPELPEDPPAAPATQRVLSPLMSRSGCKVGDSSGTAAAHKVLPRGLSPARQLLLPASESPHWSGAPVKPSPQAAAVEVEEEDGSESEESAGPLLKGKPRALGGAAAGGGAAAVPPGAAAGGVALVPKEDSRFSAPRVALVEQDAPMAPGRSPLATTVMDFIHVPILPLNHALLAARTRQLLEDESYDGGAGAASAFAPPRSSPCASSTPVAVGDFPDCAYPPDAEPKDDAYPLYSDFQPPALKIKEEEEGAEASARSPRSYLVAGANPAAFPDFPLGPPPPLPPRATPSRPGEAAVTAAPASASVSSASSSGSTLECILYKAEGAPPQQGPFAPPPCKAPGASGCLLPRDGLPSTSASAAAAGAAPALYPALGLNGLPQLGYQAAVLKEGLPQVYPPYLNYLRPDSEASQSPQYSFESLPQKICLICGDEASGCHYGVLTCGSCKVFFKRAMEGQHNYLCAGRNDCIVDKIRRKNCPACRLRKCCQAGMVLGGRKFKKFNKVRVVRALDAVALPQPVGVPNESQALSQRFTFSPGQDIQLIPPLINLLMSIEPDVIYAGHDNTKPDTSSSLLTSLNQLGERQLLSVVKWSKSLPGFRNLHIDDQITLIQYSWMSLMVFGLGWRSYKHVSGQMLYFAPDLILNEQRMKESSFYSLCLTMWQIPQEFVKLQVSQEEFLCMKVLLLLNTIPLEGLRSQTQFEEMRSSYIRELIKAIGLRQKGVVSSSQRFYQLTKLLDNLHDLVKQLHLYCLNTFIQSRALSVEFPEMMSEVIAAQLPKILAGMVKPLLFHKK
Description: PRE-luciferase reporter, steroid receptor specificity. It counts as cell-based. As to conditions: LNCaP cells transfected with PR, steroid 10 nM; 185-9-2 5 μg/ml, bicalutamide 10 μM. Here is the method:
Sequence similarities of amino acids in the AR with related human steroid receptors PR and glucocorticoid receptor (GR) are significant in some domains such as the DBD. The AR NTD shares less than 15% homology with the PR and GR, but these receptors interact with some of the same proteins (eg., SRC-1 and CBP). […] Cells were co-transfected with expression plasmids for full-length hGR, PRβ and the relative reporter (i.e., pGR-Luc or PRE-E1b-Luc reporters). Cells were then treated with ethanol vehicle, dexamethasone (GR), 4-pregnene-3,20 dione (progesterone) (PR) followed by measurement of luciferase activity. […] Some antiandrogens currently used in the clinic have progestational and glucocorticoidal activities. In adult males, the role of the PR activity is unclear.
For orientation: Reporter assays use an easily measured gene product as a stand-in for the process of interest.

The target in experiment [2] is T2, AR interaction with the ARE on the PSA enhancer (Homo sapiens, UniProt P10275, T878A).
T2 construct: LNCaP cells express endogenous AR and secrete prostate-specific antigen (PSA); endogenous in cells; host or cells: LNCaP
T2 sequence (P10275 1-920 T878A): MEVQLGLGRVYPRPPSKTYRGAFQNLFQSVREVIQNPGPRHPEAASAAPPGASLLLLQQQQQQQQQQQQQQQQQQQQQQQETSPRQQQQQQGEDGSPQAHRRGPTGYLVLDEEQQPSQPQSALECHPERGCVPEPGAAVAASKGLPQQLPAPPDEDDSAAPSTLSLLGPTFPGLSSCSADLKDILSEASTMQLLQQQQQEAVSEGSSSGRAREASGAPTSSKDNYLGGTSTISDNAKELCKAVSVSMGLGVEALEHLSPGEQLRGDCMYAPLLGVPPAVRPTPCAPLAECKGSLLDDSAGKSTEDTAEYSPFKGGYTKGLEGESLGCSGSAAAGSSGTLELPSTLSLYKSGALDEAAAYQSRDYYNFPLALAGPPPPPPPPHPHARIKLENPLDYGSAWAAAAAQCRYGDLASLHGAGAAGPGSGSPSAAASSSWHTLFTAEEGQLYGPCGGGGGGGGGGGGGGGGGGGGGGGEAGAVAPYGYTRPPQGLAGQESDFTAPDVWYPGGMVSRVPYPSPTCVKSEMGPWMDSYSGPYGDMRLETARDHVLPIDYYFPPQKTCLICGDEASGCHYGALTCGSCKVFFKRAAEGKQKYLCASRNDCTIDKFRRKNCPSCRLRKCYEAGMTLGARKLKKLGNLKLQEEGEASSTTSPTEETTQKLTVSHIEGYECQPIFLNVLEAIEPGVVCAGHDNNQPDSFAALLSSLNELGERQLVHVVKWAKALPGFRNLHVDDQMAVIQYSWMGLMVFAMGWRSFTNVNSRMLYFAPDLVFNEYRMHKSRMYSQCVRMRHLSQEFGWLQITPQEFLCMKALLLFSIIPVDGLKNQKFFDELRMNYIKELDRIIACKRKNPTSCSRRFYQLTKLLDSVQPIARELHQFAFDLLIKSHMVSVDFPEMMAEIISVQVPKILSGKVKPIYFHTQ
Kind of experiment: ChIP of AR on the PSA enhancer ARE in LNCaP cells. It counts as cell-based. Particulars: DHT 3 h or 16 h, 185-9-2 10 μg/ml.

“Also recorded” adds a separate entry of the source. Structures can show the parent of a compound that is named as a salt.

For `CC(C)(c1ccc(OCC(O)CO)cc1)c1ccc(OCC(O)CCl)cc1` (centres unmarked) [185-9-2, BADGE.HCL.H2O], the “PRE-luciferase activity in response to ligand” value in experiment [1] is “did NOT inhibit; also recorded: does NOT inhibit”. Besides, the “AR interaction with the ARE on the PSA enhancer in response to androgen (ChIP)” value in experiment [2] is “inhibited AR interaction with the ARE”.
